Reference: patent US10995087B2, “Crystal form of URAT1 inhibitor, and preparation method therefor” (MEDSHINE DISCOVERY INC., priority 2017, dated 2021)
Converted amounts (≈) assume the structure as drawn. Read-outs that look alike come from different tables or passages of the source. Values belong to the compound of their own block, whether it stands above or below them.

Experiments:
[1] = Plasma pharmacokinetics in male and female SD rats after single intravenous and intragastric administration; format: in vivo; settings: rat; for clearance: read-out: plasma clearance rate; for Vd: read-out: steady state apparent volume of distribution (Vdss); for bioavailability: PO 4.0 mg/kg vs IV 2.0 mg/kg; for Cmax: read-out: peak concentration (Cmax); for Tmax: read-out: peak time Tmax
Text: Experimental purpose: Plasma pharmacokinetics of male and female SD rats after single intravenous injection and intragastric administration as well as repeated intragastric administration for 8 days for the compound of formula (I).
1. In this experiment, 12 SD rats, half males and half females, were provided by Beijing Vital River Laboratory Animal Technologies Co., Ltd., and were divided into 2 groups according to the similarity of their body weights, each group had 3 females and 3 males. The details of the administration protocol and blood collection protocol were shown in Table 5 and Table 6, respectively.
All animals fasted every other night before the first day of administration and resumed to be fed 4 hours after the administration.
Note: DMSO means dimethyl sulfoxide; HP-β-CD means hydroxypropyl-β-cyclodextrin; MC means methyl cellulose;
IV means intravenous administration; PO means intragastric administration.
Sample Collection and Analysis Methods
0.15 mL of blood samples from experimental animals were collected by jugular vein puncture, and immediately transferred to labeled centrifuge tubes containing K2-EDTA (0.5 M), and the plasma was separated by centrifugation within 30 minutes (centrifugation condition: 3000 g, 4° C., 15 minutes). Plasma concentrations were measured using a validated LC/MS/MS analysis method; plasma concentrations were processed using a non-compartment model of WinNonlin™ Version 6.3 (Pharsight, Mountain View, Calif.) pharmacokinetics software, and the pharmacokinetic parameters were calculated using the linear logarithmic trapezoid method.

[2] = target: T1, uric acid transporter URAT1 (Homo sapiens, UniProt Q96S37); assay: Uptake cell inhibition experiment: URAT1-mediated 14C-uric acid uptake in HEK293A-URAT1 cells; format: cell-based
T1 construct: expressed in transfected cells; host or cells: HEK293A, stably overexpressing URAT1; the empty vector control is HEK293A-pcDNA3.1
T1 sequence (Q96S37 1-553): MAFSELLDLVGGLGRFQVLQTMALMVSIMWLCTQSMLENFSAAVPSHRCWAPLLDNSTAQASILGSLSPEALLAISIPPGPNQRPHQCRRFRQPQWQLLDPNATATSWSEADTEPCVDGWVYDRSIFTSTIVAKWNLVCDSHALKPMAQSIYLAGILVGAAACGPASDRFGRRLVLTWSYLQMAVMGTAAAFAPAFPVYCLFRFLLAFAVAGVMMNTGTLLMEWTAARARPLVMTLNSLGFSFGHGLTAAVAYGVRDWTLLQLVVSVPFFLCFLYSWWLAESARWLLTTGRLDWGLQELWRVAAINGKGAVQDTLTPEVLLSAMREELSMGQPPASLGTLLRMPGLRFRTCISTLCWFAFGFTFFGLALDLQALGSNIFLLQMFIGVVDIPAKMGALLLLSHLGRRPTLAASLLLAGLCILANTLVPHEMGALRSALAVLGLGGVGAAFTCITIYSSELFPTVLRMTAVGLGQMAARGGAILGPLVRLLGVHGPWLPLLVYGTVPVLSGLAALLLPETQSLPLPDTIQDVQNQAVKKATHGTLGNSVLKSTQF
Protocol: 1) DMSO was used as the solvent of a 200-fold working solution, the storing solution was diluted to a 200-fold working solution at each administration concentration.
2) Hanks balanced salt solution (without Cl^−) was used as the solvent for the 2-fold working solution of transport protein URAT1, and then 200-fold working solution in 1) was diluted by 100 times to obtain a 2-fold working solution at each administration concentration. […]
First, the culture medium in the culture plate was removed, and it was washed once with Hanks buffer salt solution (without Cl^−). […] The cell lysate was taken into a scintillation vial, and 3 mL of Aquasol-2 scintillation liquid was added, and the radioactive intensity in the sample was measured by using Tri-Carb 2910TR liquid scintillation instrument. […]
Three repeats (i.e. n=3) were set for each administration concentration. Mean±standard error (SD) was calculated using statistical formulas in Microsoft® Excel 2010 software.
According to the inhibitory rate (IR) for each transporter at each administration concentration, IC50 value, the effect of the compound on the transport activity of the drug transporter was calculated through Prism5.0 in combination with the Forecast function in Microsoft® Excel 2010 software.

[3] = Solubility test of crystal form A in 9 vehicles (HPLC); format: physicochemical; settings: for Solubility (4 hrs) / Solubility (24 hrs) / solubility at 4 h / solubility at 24 h: 37° C.; for Solubility (4 hrs) / solubility at 4 h: stirring 4 hrs; for Solubility (24 hrs) / solubility at 24 h: stirring 24 hrs; for solubility at 4 h / solubility at 24 h: thermodynamic from solid
Protocol: 1. Preparation of diluent and mobile phase
Diluent: 300 mL of pure water and 100 mL of pure acetonitrile were accurately measured, and mixed in a 1 L glass bottle, ultrasonically degassed for 10 minutes for use.
Mobile phase A: 0.1% phosphoric acid aqueous solution
For example: 2.0 mL of phosphoric acid was added into 2000 mL of water, and the mixture was ultrasounded for 10 minutes, mixed evenly, and naturally cooled to room temperature, as mobile phase A.
Mobile phase B: acetonitrile.
2. Preparation of the control solution (using crystal form A per se as the control sample)
5 mg of crystal form A was accurately weighed and placed in a sample bottle, and 10 mL of diluent was added, and the mixture was ultrasounded for 5 minutes, naturally cooled to room temperature, mixed evenly, and labeled as working control solution STD-1.
5 mg of crystal form A was accurately weighed and placed in a sample bottle, and 10 mL of diluent was added, and the mixture was ultrasounded for 5 minutes, naturally cooled to room temperature, mixed evenly, and labeled as working control solution STD-2.
3. Preparation of linear solution
The aforementioned working control solution STD-1 was successively diluted by 1 time, 10 times, 100 times, 1000 times and 2000 times, and was labeled as linear solutions L1, L2, L3, L4 and L5.
6 mg of crystal form A was accurately weighed respectively and added into 8 mL glass bottle, and then 3 mL of different solvents (0.1N hydrochloric acid solution, 0.01N hydrochloric acid solution, purified water, pH 3.8 buffer solution, pH 4.5 buffer solution, pH 5.5 buffer solution, pH 6.0 buffer solution, pH 7.4 buffer solution, pH 6.8 buffer solution) were accurately added to prepare the suspensions. A stirrer was added to the above suspensions, and the suspensions were fully stirred at 37° C. in dark. After stirring, the solids in the pH 7.4 buffer solution and the pH 6.8 buffer solution were completely dissolved, 6 mg of crystal form A were accurately weighed respectively, and added to the buffer solutions, and stirred fully again to prepare suspensions. After stirring for 4 hours and 24 hours, samples were taken and centrifuged. The solutions were filtered with a filter membrane and their concentrations were measured by HPLC.

[4] = female SD rats, IV single, 2.0 mg/kg
[5] = female SD rats, single intragastric (PO) 4.0 mg/kg
[6] = male SD rats, IV single, 2.0 mg/kg
[7] = male SD rats, single intragastric (PO) 4.0 mg/kg
[8] = aqueous buffer, pH 4.5 buffer solution
[9] = aqueous buffer, pH 5.5 buffer solution
[10] = aqueous buffer, pH 6.0 buffer solution
[11] = aqueous buffer, pH 6.8 buffer solution
[12] = aqueous buffer, pH 7.4 buffer solution

- AUC(0-inf) [1, 4]: 5.24 ± 0.544 µg·h/mL
- half-life ([1]; female SD rats, IV single, 2.0 mg/kg, read-out: elimination half-life (T1/2) (converted)): 3.04 ± 1.12 h
- clearance [1, 4]: 0.385 ± 0.0394 L/h/kg
- Vd [1, 4]: 1.55 ± 0.408 L/kg
- bioavailability ([1]; female SD rats): 86%
- AUC(0-inf) [1, 5]: 9.01 ± 4.67 µg·h/mL
- half-life ([1]; female SD rats, single intragastric (PO) 4.0 mg/kg, read-out: elimination half-life (T1/2) (converted)): 3.48 ± 0.835 h
- Cmax [1, 5]: 2.11 ± 1.35 µg/mL
- Tmax [1, 5]: 0.667 ± 0.289 h
- AUC(0-inf) [1, 6]: 3.53 ± 0.723 µg·h/mL
- half-life ([1]; male SD rats, IV single, 2.0 mg/kg, read-out: T1/2 (converted)): 2.52 ± 0.671 h
- clearance [1, 6]: 0.586 ± 0.137 L/h/kg
- Vd [1, 6]: 1.65 ± 0.44 L/kg
- bioavailability ([1]; male SD rats): 35.6%
- AUC(0-inf) [1, 7]: 2.51 µg·h/mL
- half-life ([1]; male SD rats, single intragastric (PO) 4.0 mg/kg, read-out: elimination half-life (T1/2) (converted)): 1.72 h
- Cmax [1, 7]: 1.13 ± 0.483 µg/mL
- Tmax [1, 7]: 0.417 ± 0.144 h
- IC50 ([2]; HEK293A-URAT1 cells, 2 min administration, n=3, read-out: IC50, inhibition of uptake of 14C-UA mediated by URAT1): 0.034 µM
- Inhibitory effect on URAT1 relative to reference compound lesinurad ([2]; ratio of IC50 values): about 177 times
Structure (SMILES): CC(C)(Sc1nnc(Br)n1-c1sc(C2CC2)c2c1CCC(F)(F)C2)C(=O)O [compound of formula (I)]

- Solubility (4 hrs) ([3]; 0.01N HCl): <LOQ
- Solubility (24 hrs) ([3]; 0.01N HCl): <LOQ
- Solubility (4 hrs) ([3]; 0.1N HCl): <LOQ
- Solubility (24 hrs) ([3]; 0.1N HCl): <LOQ
- solubility at 4 h [3, 8]: 0.001 mg/mL (≈ 2.09 µM)
- solubility at 24 h [3, 8]: 0.001 mg/mL (≈ 2.09 µM)
- solubility at 4 h [3, 9]: 0.066 mg/mL (≈ 138 µM)
- solubility at 24 h [3, 9]: 0.066 mg/mL (≈ 138 µM)
- solubility at 4 h [3, 10]: 0.214 mg/mL (≈ 447 µM)
- solubility at 24 h [3, 10]: 0.204 mg/mL (≈ 426 µM)
- solubility at 4 h [3, 11]: 1.96 mg/mL (≈ 4100 µM)
- solubility at 24 h [3, 11]: 1.84 mg/mL (≈ 3850 µM)
- solubility at 4 h [3, 12]: 3.82 mg/mL (≈ 7990 µM)
- solubility at 24 h [3, 12]: 4.05 mg/mL (≈ 8460 µM)
- Solubility in high pH buffer (conclusion) ([3]; high pH buffer): good solubility
- Solubility (4 hrs) ([3]; pH 3.8 buffer solution): <LOQ
- Solubility (24 hrs) ([3]; pH 3.8 buffer solution): <LOQ
- solubility at 4 h ([3]; Purified water): 0.045 mg/mL (≈ 94.1 µM)
- solubility at 24 h ([3]; Purified water): 0.058 mg/mL (≈ 121 µM)
Structure (SMILES): CC(C)(Sc1nnc(Br)n1-c1sc(C2CC2)c2c1CCC(F)(F)C2)C(=O)O [crystal form A]
